In patent publication US7169759B1, “Tetrapeptide inhibitors of β-secretase” (Elan Pharmaceuticals, Inc., priority 1999, dated 2007):
*1 amine or outer side, *2 acyl side, *3 side chain or, on linkers, in order; H or OH if unused. Where a SMILES comes first, the peptide text is derived from it. [ ]: non-standard residue; d: D form. The star is where a group is joined. Sta = CC(C)C[C@H](N)[C@@H](O)CC(=O)O; X1 = CC(C)CC(N[*:1])C(O)CC(=O)[*:2]; Phg = N[CH](C(=O)O)c1ccccc1; Isovaleryl = CC(C)CC(=O)*; Boc = CC(C)(C)OC(=O)*

Biological target: β-secretase (Homo sapiens, UniProt P56817)
Sequence (P56817 46-501): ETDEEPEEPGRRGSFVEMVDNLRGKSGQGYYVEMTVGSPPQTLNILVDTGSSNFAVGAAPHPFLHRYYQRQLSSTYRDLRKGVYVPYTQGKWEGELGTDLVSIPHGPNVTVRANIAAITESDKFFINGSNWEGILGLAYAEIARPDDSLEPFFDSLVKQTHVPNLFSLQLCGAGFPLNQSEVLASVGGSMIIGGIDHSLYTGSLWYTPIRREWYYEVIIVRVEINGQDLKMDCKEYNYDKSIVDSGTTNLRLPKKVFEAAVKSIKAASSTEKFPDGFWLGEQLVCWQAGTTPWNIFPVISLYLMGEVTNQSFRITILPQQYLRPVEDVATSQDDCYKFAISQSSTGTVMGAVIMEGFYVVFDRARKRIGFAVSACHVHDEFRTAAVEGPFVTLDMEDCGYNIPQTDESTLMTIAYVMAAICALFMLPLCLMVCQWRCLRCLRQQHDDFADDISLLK
Assay: assays with β-secretase (pepstatin remark)
Format: biochemical
Details: not given

| Structure (SMILES) | inhibitory activity in assays with β-secretase |
| --- | --- |
| CC(C)CC(=O)N[C@H](C(=O)N[C@H](C(=O)N[C@@H](CC(C)C)[C@@H](O)CC(=O)N[C@@H](C)C(=O)N[C@@H](CC(C)C)[C@@H](O)CC(=O)O)C(C)C)C(C)C [pepstatin] (Isovaleryl-VV[Sta]A[Sta]-OH) | no inhibitory activity |

Biological target: T1, Human brain β-Secretase (Homo sapiens, UniProt P56817)
T1 construct: Human brain β-Secretase from the concentrated HiQ pool prepared Jul; from tissue; host or cells: human brain
T1 sequence (P56817 46-501): as above
Assay: MBP-C125 enzyme inhibition assay (ELISA detection of β-secretase cleavage of MBP-C125 substrate)
Format: biochemical
Details: pH 4.5, 37° C., 90 minutes, highest concentration 200 μM, read-out: IC50 Group
Description: Enzyme Inhibition Assay Purpose/Rationale:
The MBP-C125 assay, determines relative inhibition of β-secretase cleavage of an MPB-C125 substrate by the compounds assayed. Human brain β-Secretase from the concentrated HiQ pool prepared Jul. 16, 1997 in 0.20% Triton is used in the assay. Inhibition data was obtained from an ELISA which uses an anti-MBP capture antibody (on precoated and blocked 96-well high binding plates) followed by incubation with diluted enzyme reaction supernatant, incubation with an anti-SW192 specific biotinylated reporter antibody and incubation with streptavidin/alkaline phosphatase. Detection was effected by a fluorescent substrate signal on cleavage by the phosphatase. The ELISA only detected cleavage following Leu 596 at the substrate's Swedish APP 751 mutation site.
Compounds were diluted in a 1:1 dilution series to a six-point concentration curve (two wells per concentration) which took up one 96-plate row per compound tested.
Each of the test compounds was weighed out into a vial and DMSO was added to make up a 10 mM solution. To obtain a final compound concentration of 200 μM at the high point of a 6-point dilution curve, 100 μL of the 10 mM solution was added to well C1 of a 96-well V-bottom plate. Fifty μL of DMSO was added to odd wells of row C across the plate and 1:1 serial dilutions were made. 10 μL of each dilution was added to each of two wells on row C of a corresponding V-bottom plate to which 190 μL of 52 mM NaOAc/7.9% DMSO, pH 4.5 were pre-added. The NaOAc diluted compound plate was spun down to pellet precipitant and 20 μL/well was transferred to a corresponding flat-bottom plate to which 30 μL of ice-cold enzyme-substrate mixture (2.5 μL MBP-C125 substrate, 0.03 μL enzyme and 24.5 ice cold 0.09% TX100 per 30 μl) was added. The compound concentration in the final enzyme reaction was thus 50 times less than the starting concentration. The final reaction mixture of 200 μM compound for the highest curve point was in 5% DMSO, 20 mM NaAc, 0.06% TX100, at pH 4.5. The enzyme reaction was started by warming the plates to 37° C. After 90 minutes at 37° C., 200 μL/well cold specimen diluent was added to stop the reaction and 20 μL/well was transferred to a corresponding α-MBP coated ELISA plate, containing 80 μL/well specimen diluent. This reaction was incubated overnight at 4° C. and the ELISA was developed the next day using a 2 hr. incubation with α-192SW followed by Streptavidin-AP conjugate and flourescent substrate. The signal was read on a fluorescent plate reader.

| Structure (SMILES) | IC50 [µM] |
| --- | --- |
| CSCCC(NC(=O)C(NC(=O)OC(C)(C)C)C(C)C)C(=O)NC(CC(C)C)C(O)CC(=O)NC(C(=O)NC(C)c1ccc(C(=O)O)cc1)C(C)C (centres unmarked) [Example 31] | 10 to 99 |
| CSCCC(NC(=O)C(NC(=O)OC(C)(C)C)C(C)C)C(=O)NC(CC(C)C)C(O)CC(=O)NC(C(=O)NC1CCC(C(=O)O)C(C(=O)O)C1)C(C)C (centres unmarked) [Example 32] | < 10 |
| CSCCC(NC(=O)C(NC(=O)OC(C)(C)C)C(C)C)C(=O)NC(CC(C)C)C(O)CC(=O)NC(C(=O)NC(C(=O)O)c1ccccc1)C(C)C (centres unmarked) [Example 35] (Boc-VM[X1]V[Phg]-OH; configuration not given here) | 10 to 99 |
| CSCCC(NC(=O)C(NC(=O)OC(C)(C)C)C(C)C)C(=O)NC(CC(C)C)C(O)CC(=O)NC(C(=O)NCCc1ccc(O)c([N+](=O)[O-])c1)C(C)C (centres unmarked) [Example 36] | < 10 |
| CC(=O)NC(C(=O)NC(C(=O)NC(Cc1ccccc1)C(O)CC(=O)NC(C(=O)NCc1ccc(C(=O)O)cc1)C(C)C)c1ccccc1)C(C)C (centres unmarked) [Example 37] | < 10 |
| CC(C)CC(NC(=O)C(NC(=O)C(NC(=O)OCc1ccccc1)C(C)C)c1ccccc1)C(O)CC(=O)NC(C(=O)NCc1ccc(C(=O)O)cc1)C(C)C (centres unmarked) [Example 38] | 10 to 99 |
| CC(C)CC(NC(=O)C(NC(=O)C(NC(=O)OC(C)(C)C)C(C)C)c1ccccc1)C(O)CC(=O)NC(C(=O)NCc1ccc(C(=O)O)cc1)C(C)C (centres unmarked) [Example 39] | 10 to 99 |
